For assay [1], the target named is T1, human SGLT1 (Homo sapiens, UniProt P13866).
T1 construct: expressed in transfected cells; host or cells: CHO-K1
T1 sequence (P13866 1-664): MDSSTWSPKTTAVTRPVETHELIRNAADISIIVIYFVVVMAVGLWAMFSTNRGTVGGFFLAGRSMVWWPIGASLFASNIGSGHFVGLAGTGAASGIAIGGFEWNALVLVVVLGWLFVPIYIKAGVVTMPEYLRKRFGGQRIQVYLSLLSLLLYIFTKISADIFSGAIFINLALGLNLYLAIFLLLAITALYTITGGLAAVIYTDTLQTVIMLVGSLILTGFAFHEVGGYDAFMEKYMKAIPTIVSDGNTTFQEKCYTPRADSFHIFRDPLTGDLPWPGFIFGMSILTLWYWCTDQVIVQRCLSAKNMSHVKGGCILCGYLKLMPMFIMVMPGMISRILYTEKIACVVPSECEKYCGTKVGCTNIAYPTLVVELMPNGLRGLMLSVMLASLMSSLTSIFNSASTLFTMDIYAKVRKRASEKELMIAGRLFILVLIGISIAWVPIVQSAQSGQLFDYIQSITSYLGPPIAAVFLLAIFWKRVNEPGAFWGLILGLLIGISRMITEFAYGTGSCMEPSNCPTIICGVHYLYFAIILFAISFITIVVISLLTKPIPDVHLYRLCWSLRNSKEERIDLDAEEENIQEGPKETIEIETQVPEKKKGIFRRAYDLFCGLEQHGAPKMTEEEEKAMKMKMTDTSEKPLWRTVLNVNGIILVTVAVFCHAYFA
Description: SGLT1 assay: Na-dependent 14C-AMG uptake in CHO-K1 cells stably expressing human SGLT1. The assay is classed as cell-based. The conditions noted are these: for pIC50: 500 μM AMG, 2 hours at 37° C. A digest of the protocol: (§1)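 CHO-K1 cells stably expressing human SGLT1 or SGLT2, pretreated 24 h with 10 mM Na-butyrate, were exposed 10 min to compound (0.001-10 μM) in Na-containing HEPES/Tris buffer pH 7.4. Uptake of ^14C-AMG (500 μM final) ran 2 h at 37° C, then Na-dependent uptake was counted by scintillation.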

The target in assay [2] is T2, human SGLT2 (Homo sapiens, UniProt P31639).
T2 construct: expressed in transfected cells; host or cells: CHO-K1
T2 sequence (P31639 1-672): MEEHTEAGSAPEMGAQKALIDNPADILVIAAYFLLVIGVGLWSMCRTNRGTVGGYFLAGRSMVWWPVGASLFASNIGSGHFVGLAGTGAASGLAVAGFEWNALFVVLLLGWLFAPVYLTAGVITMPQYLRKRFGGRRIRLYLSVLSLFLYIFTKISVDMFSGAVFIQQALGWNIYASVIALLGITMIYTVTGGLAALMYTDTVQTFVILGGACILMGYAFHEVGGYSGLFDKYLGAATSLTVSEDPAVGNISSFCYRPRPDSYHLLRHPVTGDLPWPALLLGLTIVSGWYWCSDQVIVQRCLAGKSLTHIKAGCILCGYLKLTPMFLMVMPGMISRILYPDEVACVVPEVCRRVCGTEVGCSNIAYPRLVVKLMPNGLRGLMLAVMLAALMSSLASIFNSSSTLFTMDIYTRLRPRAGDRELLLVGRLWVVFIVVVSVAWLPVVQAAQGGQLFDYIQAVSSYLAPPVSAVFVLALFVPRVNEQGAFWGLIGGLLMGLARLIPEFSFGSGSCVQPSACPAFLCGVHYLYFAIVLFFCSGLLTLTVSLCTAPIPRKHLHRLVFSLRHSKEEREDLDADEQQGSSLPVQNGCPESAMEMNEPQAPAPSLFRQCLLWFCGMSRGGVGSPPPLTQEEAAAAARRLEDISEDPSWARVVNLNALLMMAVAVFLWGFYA
The assay can be described thus: SGLT2 assay: Na-dependent 14C-AMG uptake in CHO-K1 cells stably expressing human SGLT2. The assay is classed as cell-based. The conditions noted are these: for pIC50: 500 μM AMG, 2 hours at 37° C. In a few lines:
as §1

Here are results for 18 molecules from patent publication US10815210B2, “Benzocyclobutane derivatives useful as dual SGLT1 / SGLT2 modulators” (Janssen Pharmaceutica NV, priority 2016, dated 2020).

pIC50: −log10 of the molar value.

Broadly, the inhibition is the relative decrease from the control value, in per cent. High values mean a response far below the control, low ones a response near the control. As usually defined, the pIC50 is −log10 of the IC50, conventionally taken in molar units.

As to `COc1cc(OC(F)F)c([C@@H]2O[C@H](CO)[C@@H](O)[C@H](O)[C@H]2O)cc1Cc1ccc2c(c1)CC2` [Compound 38, (2S,3R,4R,5S,6R)-2-(2-(difluoromethoxy)-5-((1,2-dihydrocyclobutabenzen-4-yl)methyl)-4-methoxyphenyl)-6-(hydroxymethyl)-tetrahydro-2H-pyran-3,4,5-triol], in assay [1], at 0.3 µM the inhibition was 20%. In assay [2], this molecule registered an inhibition at 0.03 µM of 78%.
Take `Cc1cc(OCF)c([C@@H]2O[C@H](CO)[C@@H](O)[C@H](O)[C@H]2O)cc1Cc1ccc2c(c1)CC2` [Compound 39, (2S,3R,4R,5S,6R)-2-(5-[bicyclo[4.2.0]octa-1(6),2,4-trien-3-ylmethyl]-2-(fluoromethoxy)-4-methylphenyl)-6-(hydroxymethyl)oxane-3,4,8-triol]: the pIC50 is 7.57 in assay [1] and 7.89 in assay [2].
`OC[C@H]1O[C@@H](c2cc(Cc3ccc4c(c3)CC4)c(Cl)cc2OCF)[C@H](O)[C@@H](O)[C@@H]1O` [Compound 40, (2S,3R,4R,5S,6R)-2-(4-chloro-5-((1,2-dihydrocyclobutabenzen-4-yl)methyl)-2-(fluoromethoxy)phenyl)-6-(hydroxymethyl)-tetrahydro-2H-pyran-3,4,5-triol]: the values for the pIC50 in assay [1] and in assay [2] were 6.83 and 9.00, respectively.
With `COc1cc(OCF)c([C@@H]2O[C@H](CO)[C@@H](O)[C@H](O)[C@H]2O)cc1Cc1ccc2c(c1)CC2` [Compound 41, (2S,3R,4R,5S,6R)-2-(5-((1,2-dihydrocyclobutabenzen-4-yl)methyl)-2-(fluoromethoxy)-4-methoxyphenyl)-6-(hydroxymethyl)-tetrahydro-2H-pyran-3,4,5-triol], the pIC50 in assay [1] was 6.97; in assay [2], 7.74.
On to `CCc1cc(OCF)c([C@@H]2O[C@H](CO)[C@@H](O)[C@H](O)[C@H]2O)cc1Cc1ccc2c(c1)CC2` [Compound 42, (2S,3R,4R,5S,6R)-2-(5-((1,2-dihydrocyclobutabenzen-4-yl)methyl)-4-ethyl-2-(fluoromethoxy)phenyl)-6-(hydroxymethyl)-tetrahydro-2H-pyran-3,4,5-triol], for which the values for the pIC50 in assay [1] and in assay [2] were 7.47 and 8.70, respectively.
`[2H]C([2H])(c1ccc2c(c1)CC2)c1cc([C@@H]2O[C@H](CO)[C@@H](O)[C@H](O)[C@H]2O)ccc1C` [Compound 51]: the pIC50 is 7.46 in assay [1] and 9.00 in assay [2].
Consider `[2H]C([2H])(c1ccc2c(c1)CC2)c1cc([C@@H]2O[C@H](CO)[C@@H](O)[C@H](O)[C@H]2O)c(OC)cc1C` [Compound 53, (2S,3R,4R,5S,6R)-2-(5-(dideuterium(1,2-dihydrocyclobutabenzen-4-yl)methyl)-2-methoxy-4-methylphenyl)-6-(hydroxymethyl)-tetrahydro-2H-pyran-3,4,6-triol], for which the figures for the pIC50 in assay [1] and in assay [2] were 7.10 and 9.00, respectively.
For `[2H]C([2H])(c1ccc2c(c1)CC2)c1cc([C@@H]2O[C@H](CO)[C@@H](O)[C@H](O)[C@H]2O)c(OC)cc1Cl` [Compound 56, (2S,3R,4R,5S,6R)-2-(5-[bicyclo[4.2.0]octa-(6),2,4-trien-3-yl(dideuterium)methyl]-4-chloro-2-methoxyphenyl)-6-(hydroxymethyl)oxane-3,4,5-triol] the same measures were 7.03 and 8.70.
Consider `[2H]C([2H])(c1ccc2c(c1)CC2)c1cc([C@@H]2O[C@H](CO)[C@@H](O)[C@H](O)[C@H]2O)ccc1CC` [Compound 58, (2S,3R,4R,5S,6R)-2-(3-[bicyclo[4.2.0]octa-(6),2,4-trien-3-yl(dideuterium)methyl]-4-ethylphenyl)-6-(hydroxymethyl)oxane-3,4,5-triol], for which the pIC50 is 7.60 in assay [1] and 8.70 in assay [2].
Turning to `[2H]C([2H])(c1ccc2c(c1)CC2)c1cc([C@@H]2O[C@H](CO)[C@@H](O)[C@H](O)[C@H]2O)c(OC)cc1CC` [Compound 60, (2S,3R,4R,5S,6R)-2-(5-(dideuterium(1,2-dihydrocyclobutabenzen-4-yl)methyl)-4-ethyl-2-methoxyphenyl)-6-(hydroxymethyl)-tetrahydro-2H-pyran-3,4,5-triol], the pIC50 in assay [1] is 7.08; in assay [2], 8.52.
For `[2H]C1([2H])Cc2ccc(Cc3cc([C@@H]4O[C@H](CO)[C@@H](O)[C@H](O)[C@H]4O)c(OC)cc3C)cc21` [Compound 63, (2S,3R,4R,5S,6R)-2-(5-((2,2-dideuterium-1,2-dihydrocyclobutabenzen-4-yl)methyl)-2-methoxy-4-methylphenyl)-6-(hydroxymethyl)-tetrahydro-2H-pyran-3,4,5-triol] the same measures were 7.08 and 9.00.
Turning to `[2H]C1([2H])Cc2ccc(Cc3cc([C@@H]4O[C@H](CO)[C@@H](O)[C@H](O)[C@H]4O)ccc3C)cc21` [Compound 65, (2S,3R,4R,5S,6R)-2-[3-[(8,8-dideuterium)bicyclo[4.2.0]octa-1(6),2,4-trien-3-ylmethyl]-4-methylphenyl]-6-(hydroxymethyl)oxane-3,4,5-triol], the values for the pIC50 in assay [1] and in assay [2] were 7.62 and 8.52, respectively.
For `[2H]C1([2H])Cc2ccc(Cc3cc([C@@H]4O[C@H](CO)[C@@H](O)[C@H](O)[C@H]4O)ccc3CC)cc21` [Compound 66, (2S,3R,4R,5S,6R)-2-(3-((2,2-dideuterium-1,2-dihydrocyclobutabenzen-4-yl)methyl)-4-ethylphenyl)-6-(hydroxymethyl)-tetrahydro-2H-pyran-3,4,5-triol] the same measures were 7.49 and 8.52.
For `[2H]C1([2H])Cc2ccc(Cc3cc([C@@H]4O[C@H](CO)[C@@H](O)[C@H](O)[C@H]4O)c(OC)cc3Cl)cc21` [Compound 67, (2S,3R,4R,5S,6R)-2-(5-{[(8,8-dideuterium)bicyclo[4.2.0]octa-1(6),2,4-trien-3-yl]methyl}-4-chloro-2-methoxyphenyl)-6-(hydroxymethyl)oxane-3,4,5-triol], the pIC50 in assay [1] was 7.32; in assay [2], 8.70.
For the molecule `[2H]C1([2H])Cc2ccc(Cc3cc([C@@H]4O[C@H](CO)[C@@H](O)[C@H](O)[C@H]4O)c(OC)cc3CC)cc21` [Compound 69, (2S,3R,4R,5S,6R)-2-(5-[(8,8-Hz)bicyclo[4.2.0]octa-1(6),2,4-trien-3-ylmethyl]-4-ethyl-2-methoxyphenyl)-6-(hydroxymethyl)oxane-3,4,5-triol], the pIC50 in assay [1] is 7.30; in assay [2] it was 8.30.
Regarding `[2H]C1([2H])Cc2ccc(Cc3cc([C@@H]4O[C@H](CO)[C@@H](O)[C@H](O)[C@H]4O)c(F)cc3C)cc21` [Compound 70, (2S,3R,4R,5S,6R)-2-(5-{[(8,8-dideuterium)bicyclo[4.2.0]octa-1(6),2,4-trien-3-yl]methyl}-2-fluoro-4-methylphenyl)-6-(hydroxymethyl)oxane-3,4,5-triol], the inhibition at 0.3 µM in assay [1] amounted to 85%. Besides, the inhibition at 0.03 µM in assay [2] was 35%.
With `[2H]C1([2H])Cc2ccc(Cc3cc([C@@H]4O[C@H](CO)[C@@H](O)[C@H](O)[C@H]4O)c(F)cc3Cl)cc21` [Compound 71, (2S,3R,4R,5S,6R)-2-{5-[(8,8-dideuterium)bicyclo[4.2.0]octa-1(6),2,4-trien-3-ylmethyl]-4-chloro-2-fluorophenyl}-6-(hydroxymethyl)oxane-3,4,5-triol], the values for the pIC50 in assay [1] and in assay [2] were 7.15 and 8.52, respectively.
For `[2H]C1([2H])Cc2ccc(Cc3cc([C@@H]4O[C@H](CO)[C@@H](O)[C@H](O)[C@H]4O)c(F)cc3OC)cc21` [Compound 72, (2S,3R,4R,5S,6R)-2-{5-[(8,8-dideuterio)bicyclo[4.2.0]octa-1(6),2,4-trien-3-ylmethyl]-2-fluoro-4-methoxyphenyl}-6-(hydroxymethyl)oxane-3,4,5-triol], the pIC50 in assay [1] is 7.62; in assay [2], 8.52.
